In US9873709B2 (priority 2013, dated 2018):
Structures can show the parent of a compound that is named as a salt. Where two headings read alike, the source gives them in different places.

Key:
[1] = test system: JAK1-dependent STAT6 phosphorylation downstream of IL-13 stimulation in BEAS-2B human bronchial epithelial cells; assay: cells; conditions: read-out: IL13-pSTAT6 BEASB2B IC50
[2] = test system: JAK1-dependent STAT6 phosphorylation downstream of IL-13 stimulation in TF-1 human erythroleukemia cells; assay: cells; conditions: TF-1, read-out: IL-13-pSTAT6 IC50
[3] = molecular target: isolated recombinant JAK2 kinase domain (Homo sapiens (Human), UniProt O60674); conditions: read-out: JAK2 Ki
[4] = isolated recombinant JAK2 kinase domain, 25 μM ATP

isolated recombinant JAK2 kinase domain, sequence (O60674 849-1124): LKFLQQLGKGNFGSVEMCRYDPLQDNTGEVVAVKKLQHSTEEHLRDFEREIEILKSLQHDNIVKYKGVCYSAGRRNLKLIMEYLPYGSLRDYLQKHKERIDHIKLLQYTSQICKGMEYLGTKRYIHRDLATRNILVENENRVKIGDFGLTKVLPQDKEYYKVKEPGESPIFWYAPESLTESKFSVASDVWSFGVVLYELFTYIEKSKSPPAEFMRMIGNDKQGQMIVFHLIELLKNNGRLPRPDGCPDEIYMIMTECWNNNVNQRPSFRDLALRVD

IC50 [2] [µM]	Ki [3, 4] [µM]	Structure (SMILES)	IC50 [1] [µM]	Ki [3] [µM]
0.125	0.00045	CN1CCC(N(C)C(=O)c2ccc(Nc3nc4c(N5CCC(CC(N)=O)(c6ccc(Cl)cc6)CC5)cccn4n3)cc2)CC1 [Example 1-298]	–	–
0.026	0.00114	CNC(=O)C1CN(C(=O)c2ccc(Nc3nc4c(N5CCC(O)(c6ccc(Cl)cc6)CC5)cccn4n3)cc2)CCN1Cc1ccccc1 (stereo not shown) [Example 1-153, 1-benzyl-4-[4-[[8-[4-(4-chlorophenyl)-4-hydroxy-1-piperidyl]-[1,2,4]triazolo[1,5-a]pyridin-2-yl]amino]benzoyl]-N-methyl-piperazine-2-carboxamide]	–	–
0.0206	0.00195	CN(C)CCN1CCN(C(=O)c2ccc(Nc3nc4c(N5CCC(O)(c6ccc(Cl)cc6)CC5)cccn4n3)cc2)CC1 [Example 1-139, [4-[[8-[4-(4-chlorophenyl)-4-hydroxy-1-piperidyl]-[1,2,4]triazolo[1,5-a]pyridin-2-yl]amino]phenyl]-[4-[2-(dimethylamino)ethyl]piperazin-1-yl]methanone]	–	–
0.0373	0.00064	CN1CCC(CCNC(=O)c2ccc(Nc3nc4c(N5CCC(O)(c6ccc(Cl)cc6)CC5)cccn4n3)cc2)CC1 [Example 1-154, 4-[[8-[4-(4-chlorophenyl)-4-hydroxy-1-piperidyl]-[1,2,4]triazolo[1,5-a]pyridin-2-yl]amino]-N-[2-(1-methyl-4-piperidyl)ethyl]benzamide]	–	–
0.0231	0.00245	O=C(NCCN1CCCCC1)c1ccc(Nc2nc3c(N4CCC(O)(c5ccc(Cl)cc5)CC4)cccn3n2)cc1 [Example 1-173, 4-[[8-[4-(4-chlorophenyl)-4-hydroxy-1-piperidyl]-[1,2,4]triazolo[1,5-a]pyridin-2-yl]amino]-N-[2-(1-piperidyl)ethyl]benzamide]	–	–
0.0121	0.00286	N#CCCN1CCN(C(=O)c2ccc(Nc3nc4c(N5CCC(O)(c6ccc(Cl)cc6)CC5)cccn4n3)cc2)CC1 [Example 1-167, 3-[4-[4-[[8-[4-(4-chlorophenyl)-4-hydroxy-1-piperidyl]-[1,2,4]triazolo[1,5-a]pyridin-2-yl]amino]benzoyl]piperazin-1-yl]propanenitrile]	–	–
0.0983	0.00107	CN1CCC(OC(=O)c2ccc(Nc3nc4c(N5CCC(O)(c6ccc(Cl)cc6)CC5)cccn4n3)cc2)CC1 [Example 1-178, (1-methyl-4-piperidyl) 4-[[8-[4-(4-chlorophenyl)-4-hydroxy-1-piperidyl]-[1,2,4]triazolo[1,5-a]pyridin-2-yl]amino]benzoate]	–	–
0.0311	0.00231	CNC(=O)C1CN(C(C)C)CCN1C(=O)c1ccc(Nc2nc3c(N4CCC(O)(c5ccc(Cl)cc5)CC4)cccn3n2)cc1 (stereo not shown) [Example 1-174, 1-[4-[[8-[4-(4-chlorophenyl)-4-hydroxy-1-piperidyl]-[1,2,4]triazolo[1,5-a]pyridin-2-yl]amino]benzoyl]-4-isopropyl-N-methyl-piperazine-2-carboxamide]	–	–
0.0155	0.00098	CN1CCCC(CN(C)C(=O)c2ccc(Nc3nc4c(N5CCC(O)(c6ccc(Cl)cc6)CC5)cccn4n3)cc2)C1 (stereo not shown) [Example 1-170, 4-[[8-[4-(4-chlorophenyl)-4-hydroxy-1-piperidyl]-[1,2,4]triazolo[1,5-a]pyridin-2-yl]amino]-N-methyl-N-[(1-methyl-3-piperidyl)methyl] benzamide]	–	–
0.0263	0.00055	CN1CCC(N(C)C(=O)c2ccc(Nc3nc4c(N5CCC(CC(=O)N(C)C)(c6ccc(Cl)cc6)CC5)cccn4n3)cc2)CC1 [Example 1-300, 4-([8-[4-(4-chlorophenyl)-4-[(dimethylcarbamoyl)methyl]piperidin-1-yl]-[1,2,4]triazolo[1,5-a]pyridin-2-yl]amino)-N-methyl-N-(1-methylpiperidin-4-yl)benzamide]	–	–

The next lines start with the compound.

Structure (SMILES)	IC50 [2] [µM]	Ki [3, 4] [µM]	IC50 [1] [µM]	Ki [3] [µM]
CCOC(=O)N1CC=C(c2cccn3nc(Nc4ccc(C(=O)N5CCC(N6CC(C)OC(C)C6)CC5)cc4)nc23)CC1 (stereo not shown) [Example 2-63, ethyl 4-[2-[4-[4-(2,6-dimethylmorpholin-4-yl)piperidine-1-carbonyl]anilino]-[1,2,4]triazolo[1,5-a]pyridin-8-yl]-3,6-dihydro-2H-pyridine-1-carboxylate]	–	–	0.151	–
CC1CN(C2CCN(C(=O)c3ccc(Nc4nc5c(N6CCC(O)(c7ccc(Cl)cc7)CC6)cccn5n4)cc3)CC2)CC(C)O1 (stereo not shown) [Example 1-118, [4-[[8-[4-(4-chlorophenyl)-4-hydroxy-1-piperidyl]-[1,2,4]triazolo[1,5-a]pyridin-2-yl]amino]phenyl]-[4-(2,6-dimethylmorpholin-4-yl)-1-piperidyl]methanone]	–	–	0.112	–
CN1CCC(N(C)C(=O)c2ccc(Nc3nc4c(N5CCC(c6ccc(Cl)cc6)(C(O)CO)CC5)cccn4n3)cc2)CC1 (stereo not shown) [Example 1-270, 4-[[8-[4-(4-chlorophenyl)-4-(1,2-dihydroxyethyl)-1-piperidyl]-[1,2,4]triazolo[1,5-a]pyridin-2-yl]amino]-N-methyl-N-(1-methyl-4-piperidyl)benzamide]	–	–	0.114	–
CN1CCN(C2CCN(C(=O)c3ccc(Nc4nc5c(N6CCC(O)(c7ccc(Cl)cc7)CC6)cccn5n4)cc3)CC2)CC1 [Example 1-117, [4-[[8-[4-(4-chlorophenyl)-4-hydroxy-1-piperidyl]-[1,2,4]triazolo[1,5-a]pyridin-2-yl]amino]phenyl]-[4-(4-methylpiperazin-1-yl)-1-piperidyl]methanone]	0.0292	0.00085	–	–
CN1CCC(N(C)C(=O)c2ccc(Nc3nc4c(N5CCC(CO)(c6ccc(Cl)cc6)CC5)cccn4n3)cc2)CC1 [Example 1-246]	0.0054	–	–	0.00033
COCCOc1cc(COC2CCN(c3cccn4nc(Nc5ccc(C(=O)N(C)C6CCN(C)CC6)cc5)nc34)CC2)ccn1 [Example 1-44, 4-[[8-[4-[[2-(2-methoxyethoxy)-4-pyridyl]methoxy]-1-piperidyl]-[1,2,4]triazolo[1,5-a]pyridin-2-yl]amino]-N-methyl-N-(1-methyl-4-piperidyl)benzamide]	0.168	0.00703	–	–
CN1CCC(N(C)C(=O)c2ccc(Nc3nc4c(N5CCC(OCC#N)CC5)cccn4n3)cc2)CC1 [Example 1-23, 4-[[8-[4-(cyanomethoxy)-1-piperidyl]-[1,2,4]triazolo[1,5-a]pyridin-2-yl]amino]-N-methyl-N-(1-methyl-4-piperidyl)benzamide]	0.0737	0.0025	–	–
O=C(c1ccc(Nc2nc3c(N4CCC(O)(c5ccc(Cl)cc5)CC4)cccn3n2)cc1)N1CCN(Cc2cccnc2)CC1 [Example 1-123, [4-[[8-[4-(4-chlorophenyl)-4-hydroxy-1-piperidyl]-[1,2,4]triazolo[1,5-a]pyridin-2-yl]amino]phenyl]-[4-(3-pyridylmethyl)piperazin-1-yl]methanone]	0.0258	0.0007	–	–
CC(C)N1CCC(CN(C)C(=O)c2ccc(Nc3nc4c(N5CCC(O)(c6ccc(Cl)cc6)CC5)cccn4n3)cc2)C1 (stereo not shown) [Example 1-129, 4-[[8-[4-(4-chlorophenyl)-4-hydroxy-1-piperidyl]-[1,2,4]triazolo[1,5-a]pyridin-2-yl]amino]-N-[(1-isopropylpyrrolidin-3-yl)methyl]-N-methyl-benzamide]	0.0377	0.00174	–	–
CN1CCC(N(C)C(=O)c2ccc(Nc3nc4c(C5=CCC(CC#N)(c6ccc(Cl)cc6)CC5)cccn4n3)cc2)CC1 (stereo not shown) [Example 1-294, 4-([8-[4-(4-chlorophenyl)-4-(cyanomethyl)cyclohex-1-en-1-yl]-[1,2,4]triazolo[1,5-a]pyridin-2-yl]amino)-N-methyl-N-(1-methylpiperidin-4-yl)benzamide]	0.0627	–	–	0.0004
CN(Cc1cccnc1)C(=O)c1ccc(Nc2nc3c(N4CCC(O)(c5ccc(Cl)cc5)CC4)cccn3n2)cc1 [Example 1-138, 4-[[8-[4-(4-chlorophenyl)-4-hydroxy-1-piperidyl]-[1,2,4]triazolo[1,5-a]pyridin-2-yl]amino]-N-methyl-N-(3-pyridylmethyl)benzamide]	0.135	0.00356	–	–
CN1CCC(N(C)C(=O)c2ccc(Nc3nc4c(N5CCC(O)(c6ccc(C#N)cc6)CC5)cccn4n3)cc2)CC1 [Example 1-21, 4-[[8-[4-(4-cyanophenyl)-4-hydroxy-1-piperidyl]-[1,2,4]triazolo[1,5-a]pyridin-2-yl]amino]-N-methyl-N-(1-methyl-4-piperidyl)benzamide]	0.333	0.00649	–	–
COC1(c2ccccc2)CCN(c2cccn3nc(Nc4ccc(C(=O)N(C)C5CCN(C)CC5)cc4)nc23)CC1 [Example 1-5, 4-[[8-(4-methoxy-4-phenyl-1-piperidyl)-[1,2,4]triazolo[1,5-a]pyridin-2-yl]amino]-N-methyl-N-(1-methyl-4-piperidyl)benzamide; hydrochloride]	0.767	0.00515	–	–
CCc1ccc(C2(O)CCN(c3cccn4nc(Nc5ccc(C(=O)N(C)C6CCN(C)CC6)cc5)nc34)CC2)cc1 [Example 1-36, 4-[[8-[4-(4-ethylphenyl)-4-hydroxy-1-piperidyl]-[1,2,4]triazolo[1,5-a]pyridin-2-yl]amino]-N-methyl-N-(1-methyl-4-piperidyl)benzamide]	0.142	0.00432	–	–
CN1CCC(N(C)C(=O)c2ccc(Nc3nc4c(N5CCN(C(=O)N6CC(C)(C)C6)CC5)cccn4n3)cc2)CC1 [Example 1-34, 4-[[8-[4-(3,3-dimethylazetidine-1-carbonyl)piperazin-1-yl]-[1,2,4]triazolo[1,5-a]pyridin-2-yl]amino]-N-methyl-N-(1-methyl-4-piperidyl)benzamide]	0.915	0.00861	–	–
CC(C)CN1CCC(N(C)C(=O)Cn2cc(Nc3nc4c(C5=CCN(C(=O)CCC(F)(F)F)CC5)cccn4n3)cn2)CC1 [Example 1-297, N-methyl-N-[1-(2-methylpropyl)piperidin-4-yl]-2-[4-([8-[1-(4,4,4-trifluorobutanoyl)-1,2,3,6-tetrahydropyridin-4-yl]-[1,2,4]triazolo[1,5-a]pyridin-2-yl]amino)-1H-pyrazol-1-yl]acetamide]	0.0367	–	–	0.00944
